Key:
[1] = tested on: passiven cutanen Anaphylaxie (PCA); test: Passive cutaneous anaphylaxis (PCA) in rats sensitised with ovalbumin antiserum; format: in vivo, Ratte; details: for ED50: Rattus norvegicus, dose reducing diameter of dye spots by 50 % vs untreated controls, read-out: Hemmung der PCA Ratte ED 50 %; for ED50 / Hemmung der PCA Ratte R.W. (Relative Wirksamkeit) / mal wirksamer als die Vergleichsverbindung V1: oral administration; for inhibition in vivo at 1 mg/kg: ip, read-out: % Hemmung X ± SX; for inhibition in vivo at 1 mg/kg / % Hemmung X ± SX: intraperitoneal, 1 mg/kg test substance, mean ± SX; for Hemmung der PCA Ratte R.W. (Relative Wirksamkeit): relative to V1 = 1,00
Procedure: Die antiallergische Wirkung wurde an Ratten getestet. Zur ' Prüfung wurde das Modell der passiven cutanen Anaphylaxie (PCA) verwendet.
Narkotisierte männliche Ratten (100 bis 140 g) werden durch intradermale Injektion (rasierte Rückenhaut) von 0,1 ml eines Ovalbumin-Antiserums sensibilisiert. Nach einer Sensibilisierungsperiode von ca. 48 Stunden erfolgt die Behandlung (intraperitoneale bzw. orale Applikation) mit unterschiedlichen Dosierungen (10 Tiere/Dosis) der Prüfsubstanzen. 15 bis 20 Minuten nach der Behandlung wird eine Antigen/Evansblau-Hischung (10 mg/kg Ovalbumin in 2 %iger Evansblau-Lösung) den Versuchstieren intravenös injiziert. 30 Minuten später werden die Tiere getötet, die Rückenhaut abgezogen und auf der inneren Oberfläche der Durchmesser der kreisförmigen Blaufärbung gemessen. Die Größe der Farbflecke unbehandelter Kontrolltiere ist standardisierbar. Antiallergisch wirksame Substanzen verkleinern dosisabhängig den Durchmesser der Farbflecke. Als ED 50 % wird die Dosis angegeben die im Vergleich zu medikamentös unbehandelten Kontrolltieren den Durchmesser der Farbflecke um 50 % herabsetzt.

[2] = Acute toxicity, rat, oral; details: in vivo, read-out: LD 50 Ratte p.o.
From the text: (§1) Außer der antiallergischen Wirkung wurde die akute Toxizität an Gruppen von je 2 NMRI-Mäusen, Gewicht 20 bis 26 g, bei intraperitonealer Applikation und an je 2 Sprangue--Dawley-Ratten, Gewicht 120 bis 150 g, bei oraler Applikation ermittelt. Die Bestimmung der LD 50 erfolgte an Gruppen von je 10 NMRI-Mäusen, Gewicht 20 bis 26 g,nach intraperitonealer Applikation. Die Nachbeobachtungszeit betrug 14 Tage.

[3] = Acute toxicity, mouse, intraperitoneal; details: in vivo, ip, read-out: LD 50 Maus i.p.
From the text: as §1

[4] = Water solubility (remark in synthesis example); format: physicochemical
[5] = Sprague-Dawley rats, oral, 14 days observation
[6] = NMRI mice, intraperitoneal, 14 days observation

Compound	ED50 [1] [mg/kg]	inhibition in vivo at 1 mg/kg ([1]; PCA rat) [%]	Hemmung der PCA Ratte R.W. (Relative Wirksamkeit) [1]	LD50 at 336 h [2, 5] [mg/kg]	also measured
CCOC(=O)C(=O)Nc1nc2c(s1)CCC2 [Beispiel 1, N-(Cyclopentano[1,2-d]thiazol-2-yl)-oxamidsäureethylester]	1.59	25 ± 4.7	5,40	> 2150	LD50 at 336 h [3, 6]: ~464 mg/kg
CCOC(=O)C(=O)Nc1nc2c(s1)CCCC2 [Beispiel 2, N-(Cyclohexano[1,2-d]thiazol-2-yl)-oxamidsäureethylester]	–	61 ± 8.8	11,90	–	mal wirksamer als die Vergleichsverbindung V1 ([1]; PCA rat): 11.9; LD50 at 336 h ([2]; po): > 2150 mg/kg; LD50 at 336 h [3]: 422 mg/kg
CCOC(=O)C(=O)Nc1nc2c(s1)C(C)(C)CC(C)(C)C2 [Beispiel 4, N-(5,5,7,7-Tetramethylcyclohexano[1,2-d]thiazol-2-yl)-oxamidsäureethylester]	–	15 ± 3.5	–	–	–
CCOC(=O)C(=O)Nc1nc2c(s1)CCCCC2 [Beispiel 5, N-(Cycloheptano[1,2-d]thiazol-2-yl)oxamidsäureethylester]	–	34 ± 6	–	–	–
O=C(O)C(=O)Nc1nc2c(s1)CCCC2 [Beispiel 6, N-(Cyclohexano[1,2-d]thiazol-2-yl)-oxamidsäure]	3.09	63 ± 6.6	2,78	–	mal wirksamer als die Vergleichsverbindung V1 ([1]; PCA rat): 2,8; LD50 at 336 h ([2]; po): > 2150 mg/kg; LD50 at 336 h [3]: ~464 mg/kg
CC(C)(C)OC(=O)C(=O)Nc1nc2c(s1)CCCC2 [Beispiel 7]	2.35	33 ± 7.9	3,65	> 2150	–
O=C(O)c1cc(=O)c2c(OCC(O)COc3cccc4oc(C(=O)O)cc(=O)c34)cccc2o1 [Cromolyne, reference compound]	100	21 ± 3.6	–	> 2150	antiallergische Wirkung nach oraler Applikation ([1]; PCA rat, up to 100 mg/kg p.o.): unwirksam
CCOC(=O)C(=O)Nc1nc2ccccc2s1 [V1, N-Benzthiazol-2-yl-oxamidsäureethylester, reference compound]	8.6	26 ± 6.5	1,00	> 2150	LD50 at 336 h [3, 6]: ~464 mg/kg
N-(6-tert.-Butylcyclohexano[1,2-d]thiazol-2-yl)-oxamidsäureethylester [Beispiel 3]	–	–	–	–	% Hemmung X ± SX ([1]; PCA rat): 14 ± 4,1%
N-(Cyclohexano[1,2-d]thiazol-2-yl)-oxamidsäure-ethanol- aminsalz [Beispiel 8]	–	–	–	–	% Hemmung X ± SX ([1]; PCA rat): 73 ± 7,5%; Wasserlöslichkeit [4]: gut wasserlöslichen

Source: patent EP0044443A1, “Cycloalkano-thiazolyloxamidic-acid derivatives, process for their preparation and pharmaceutical compositions containing them” (BASF Aktiengesellschaft, priority 1980, dated 1982)
